According to patent publication US8501781B2 (priority 2009, dated 2013):
Marks after values point to notes of the source that are not given here.

Experiment: logP by HPLC (EEC Directive 79/831 Annex V.A8)
Assay type: physicochemical
Conditions: for chromatographic logP: pH 2.7, given in the preparation examples, read-out: log P (pH 2.7)
[1] = [b] LC-MS, acidic range, pH 2.7, 0.1% aqueous formic acid and acetonitrile
[2] = [c] LC-MS, neutral range, pH 7.8, 0.001 molar aqueous ammonium bicarbonate and acetonitrile

| SMILES | logP [1] | further results |
| --- | --- | --- |
| Cc1ccc(C)c(NC(=O)N2CCC(c3nc(C(=O)Oc4c(C)cccc4Br)cs3)CC2)c1 [Example 141] | 3.82^[b] |  |
| COc1cccc(Br)c1OC(=O)c1csc(C2CCN(C(=O)Nc3cc(C)ccc3C)CC2)n1 [Example 142] | 3.56^[b] |  |
| Cc1ccc(C)c(NC(=O)N2CCC(c3nc(C(=O)Oc4c(C)cccc4Cl)cs3)CC2)c1 [Example 143] | 3.76^[b] |  |
| Cc1ccc(C)c(NC(=O)N2CCC(c3nc(C(=O)Oc4c(Br)cccc4Br)cs3)CC2)c1 [Example 144] | 3.93^[b] |  |
| COc1cccc(F)c1OC(=O)c1csc(C2CCN(C(=O)Nc3cc(C)ccc3C)CC2)n1 [Example 145] | 3.28^[b] |  |
| Cc1ccc(C)c(NC(=O)N2CCC(c3nc(C(=O)Oc4ccccc4Br)cs3)CC2)c1 [Example 146] | 3.58^[b] |  |
| Cc1ccc(C)c(NC(=O)N2CCC(c3nc(C(=O)Oc4ccccc4F)cs3)CC2)c1 [Example 147] | 3.27^[b] |  |
| Cc1ccc(C)c(NC(=O)N2CCC(c3nc(C(=O)Oc4ccccc4Cl)cs3)CC2)c1 [Example 148] | 3.51^[b] |  |
| Cc1ccc(C)c(NC(=O)N2CCC(c3nc(C(=O)Oc4c(F)cccc4Cl)cs3)CC2)c1 [Example 149] | 3.62^[b] |  |
| Cc1ccc(C)c(NC(=O)N2CCC(c3nc(C(=O)Oc4c(F)cccc4F)cs3)CC2)c1 [Example 150] | 3.39^[b] |  |
| Cc1ccc(C)c(NC(=O)N2CCC(c3nc(C(=O)Oc4c(Cl)cccc4Cl)cs3)CC2)c1 [Example 151] | 3.82^[b] |  |
| Cc1ccc(C)c(NC(=O)N2CCC(c3nc(C(=O)Oc4c(F)cccc4Br)cs3)CC2)c1 [Example 152] | 3.86^[b] |  |
| Cc1ccc(C)c(NC(=O)N2CCC(c3nc(C(=O)OC(C)c4ccccc4F)cs3)CC2)c1 (centres unmarked) [Example 153] | 3.71^[b] |  |
| Cc1ccc(C)c(NC(=O)N2CCC(c3nc(C(=O)Oc4ccccc4I)cs3)CC2)c1 [Example 154] | 3.69^[b] |  |
| Cc1ccc(C)c(NC(=O)N2CCC(c3nc(C(=O)OCc4c(F)cccc4Br)cs3)CC2)c1 [Example 155] | 3.79^[b] |  |
| Cc1ccc(C)c(NC(=O)N2CCC(c3nc(C(=O)OC(C)c4c(Cl)cccc4Cl)cs3)CC2)c1 (centres unmarked) [Example 156] | 4.35^[b] |  |
| Cc1ccc(C)c(NC(=O)N2CCC(c3nc(C(=O)OCCc4c(Cl)cccc4Cl)cs3)CC2)c1 [Example 157] | 4.29^[b] |  |
| Cc1ccc(C)c(NC(=S)N2CCC(c3nc(C(=O)OC4CCCCC4c4ccccc4)cs3)CC2)c1 (centres unmarked) [Example 158] | 4.73^[b] |  |
| Cc1ccc(Cl)cc1NC(=S)N1CCC(c2nc(C(=O)OC3CCCCC3c3ccccc3)cs2)CC1 (centres unmarked) [Example 159] | 4.83^[b] |  |
| Cc1ccc(C)c(NC(=O)N2CCC(c3nc(C(=O)OC4CCCCC4c4ccc(F)c(F)c4)cs3)CC2)c1 (centres unmarked) [Example 160] | 4.52^[b] |  |
| Cc1ccc(Cl)cc1NC(=O)N1CCC(c2nc(C(=O)OCc3c(F)cccc3Cl)cs2)CC1 [Example 161] | 3.89^[b] |  |

| SMILES | logP [1] | further results |
| --- | --- | --- |
| COc1ccc(C)cc1NC(=O)N1CCC(c2nc(C(=O)OCc3c(F)cccc3Cl)cs2)CC1 [Example 162] | 3.92^[b] |  |
| Cc1ccc(Cl)cc1NC(=O)N1CCC(c2nc(C(=O)OCc3c(F)cccc3F)cs2)CC1 [Example 163] | 3.62^[b] |  |
| COc1ccc(C)cc1NC(=O)N1CCC(c2nc(C(=O)OCc3c(F)cccc3F)cs2)CC1 [Example 164] | 3.66^[b] |  |
| Cc1cc(C(F)(F)F)nn1CC(=O)N1CCC(F)(c2nc(C(=O)OCc3c(F)cccc3F)cs2)CC1 [Example 165] | 3.65 | logP [2]: 3.67 |
| Cc1ccc(Cl)cc1NC(=O)N1CCC(F)(c2nc(C(=O)OCc3c(F)cccc3F)cs2)CC1 [Example 166] | 3.87 | logP [2]: 3.86 |
| Cc1ccc(Cl)cc1NC(=O)N1CCC(F)(c2nc(C(=O)OC3CCCCC3)cs2)CC1 [Example 167] | 4.33 | logP [2]: 4.32 |
| O=C(OCc1c(F)cccc1F)c1csc(C2(F)CCN(C(=O)Cn3nc(C(F)F)cc3C(F)F)CC2)n1 [Example 168] | 3.53 | logP [2]: 3.56 |
| COc1ccc(C)cc1NC(=O)N1CCC(F)(c2nc(C(=O)OC3CCCCC3)cs2)CC1 [Example 169] | 4.4 | logP [2]: 4.42 |
| Cc1cc(C(F)(F)F)nn1CC(=O)N1CCC(F)(c2nc(C(=O)OC3CCCCC3)cs2)CC1 [Example 170] | 4.07 | logP [2]: 4.09 |
| Cc1ccc(C)c(NC(=O)N2CCC(F)(c3nc(C(=O)OCc4c(F)cccc4F)cs3)CC2)c1 [Example 171] | 3.69 | logP [2]: 3.71 |
| Cc1ccc(C)c(NC(=O)N2CCC(F)(c3nc(C(=O)OC4CCCCC4)cs3)CC2)c1 [Example 172] | 4.15^[c]; 4.15^[b] | logP [2]: 4.15^[c]; 4.15^[b] |
| COc1ccc(C)cc1NC(=O)N1CCC(F)(c2nc(C(=O)OCc3c(F)cccc3F)cs2)CC1 [Example 173] | 3.80 | logP [2]: 3.92 |
| COCCOCC(=O)N1CCC(c2nc(C(=O)OC3CCCCC3)cs2)CC1 [Example 174] |  | logP ([a] acidic range, pH 2.3, 0.1% aqueous phosphoric acid and acetonitrile): 2.37^[a] |
| O=C(OCc1c(F)cccc1F)c1cnc(C2CCN(C(=O)Cn3nc(C(F)F)cc3C(F)F)CC2)s1 [Example 175] | 3.45^[b] |  |
| O=C(Oc1c(F)cccc1Cl)c1cnc(C2CCN(C(=O)Cn3nc(C(F)F)cc3C(F)F)CC2)s1 [Example 176] | 3.67^[b] |  |
| Cc1cccc(COC(=O)c2cnc(C3CCN(C(=O)Cn4nc(C(F)F)cc4C(F)F)CC3)s2)c1C [Example 177] | 4.00^[b] |  |
| O=C(OC1CCCCC1)c1cnc(C2CCN(C(=O)Cn3nc(C(F)F)cc3C(F)F)CC2)s1 [Example 178] | 3.97^[b] |  |
| O=C(OC1CCCCC1)c1csc(C2CCNCC2)n1 [VII-1, 4-{4-[(Cyclohexyloxy)carbonyl]-1,3-thiazol-2-yl}piperidinium chloride] |  | chromatographic logP: 1.25 |
| CC(C)(C)OC(=O)N1CCC(c2nc(C(=O)O)cs2)CC1 [XXXI-1, 2-[1-(tert-Butoxycarbonyl)piperidin-4-yl]-1,3-thiazole-4-carboxylic acid] |  | chromatographic logP: 2.04 |
| CC(C)(C)OC(=O)N1CCC(c2nc(C(=O)OC3CCCCC3)cs2)CC1 [XXXIII-1, tert-Butyl 4-{4-[(cyclohexyloxy)carbonyl]-1,3-thiazol-2-yl}piperidine-1-carboxylate] |  | chromatographic logP: 4.62 |
